Laboratory results: patent US20210318274A1, “METHODS FOR EVALUATING LIVER FUNCTION” (HepQuant, LLC, priority 2020, published 2021)
Read-outs that look alike come from different tables or passages of the source.

Assays:
[1] = Lidocaine MEGX 15 min concentration by Child-Pugh and DSI; type: in vivo, human; details: by DSI score group (5-15, 15-25, 25-35, 35-45)
Description: Lidocaine elimination and MEGX (monoethylglycinexylidide) formation after oral lidocaine administration may be used as a quantitative assessment of liver function. […] MEGX 15 minute concentrations.

[2] = cited from earlier work
[3] = Obeticholic acid plasma exposure versus DSI, clinical trial in NASH; type: in vivo, human; details: NASH patients, fibrosis F1 to compensated F4
Source text: Obeticholic acid (OCA) is a Farnesoid X Receptor (FXR) agonist, bile acid analog of chenodeoxycholic acid that is FDA approved for treatment of primary biliary cholangitis, and is being studied for use in treating other hepatic diseases and conditions. […] The circles are observed data; red lines are linear regression fit. OCA=Obeticholic acid. […] DSI correlates with OCA PK both at baseline (day 1) and at day 85.

[4] = Antipyrine clearance by Child-Pugh and DSI; type: in vivo, human
Source text: Antipyrine is an analgesic and antipyretic. […] Antipyrine may be used in testing the effects of other drugs or diseases on drug-metabolizing enzymes in the liver, such as various cytochrome p450 (CYP) enzymes, for example, as shown in Table 22.

[5] = parameters: species or system human; details: in vivo
Description: In some embodiments, the distinguishable compound is galactose. Galactose elimination capacity (GEC) has been used as an index of residual hepatic function. Galactose in the GEC test typically is administered intravenously at a dose of […] and venous samples taken every 5 min between 20 and 60 minutes. The clearance of galactose is decreased in individuals with chronic liver disease and cirrhosis. The fact that this carbohydrate has a high extraction ratio, however, makes the metabolism of galactose dependent on liver blood flow and hepatic functional mass. […] The carbohydrate galactose is metabolized almost exclusively in the liver, and the elimination rate at blood concentrations high enough to yield near-saturated enzymatic conversion, the GEC is used as a quantitative measure of the metabolic capacity of the liver. One study has shown that among patients with a newly-diagnosed cirrhosis and a decreased GEC, the GEC was a strong predictor of mortality. (Jepsen et al, 2009, The galactose elimination capacity and mortality in 781 Danish patients with newly-diagnosed liver cirrhosis: a cohort study. BMC Gastroenterol. 2009, 9:50).

[6] = individuals with chronic liver disease and cirrhosis; cited from earlier work
[7] = in vivo
Source text: The present inventors analyzed the relationship of DSI to pharmacokinetic parameters of various classes of drugs.
Methionine is an essential amino acid in humans, and is the substrate for other amino acids such as cysteine or taurine. Methionine also may be used to prevent liver toxicity in acetaminophen (Tylenol) poisoning, to increase acidity of urine, treat liver disorders, or improve wound healing. […] The methionine breath test may involve orally administered ^13C-methionine to detect hepatic mitochondrial dysfunction by evaluating level of ^13CO2 exhalation. ^13C methionine breath test may be used to monitor hepatic mitochondrial oxidation and drug-related mitochondrial toxicity in vivo, for example, to detect antiretroviral drug-related mitochondrial toxicity.

CCN(CC)CC(=O)Nc1c(C)cccc1C [Lidocaine]
Average MEGX 15 min concentration following lidocaine [1]: lowest PK average values | First pass hepatic extraction (qualitative) ([2]; substrate characterisation): relatively high first pass hepatic extraction

CC[C@H]1[C@@H](O)[C@@H]2[C@H](CC[C@]3(C)[C@@H]([C@H](C)CCC(=O)O)CC[C@@H]23)[C@@]2(C)CC[C@@H](O)C[C@@H]12 [Obeticholic acid, 6alpha-ethyl-chenodeoxycholic acid]
Plasma exposure in relation to DSI [3]: related to DSI measurement

Cc1cc(=O)n(-c2ccccc2)n1C [Antipyrine]
Average antipyrine clearance ([4]; Child-Pugh class B versus CP A5 and CP A6 patients): decreased average antipyrine clearance | Average antipyrine clearance ([4]; by DSI score group (5-15, 15-25, 25-35, 35-45)): reduced average antipyrine clearance | Average antipyrine clearance ([4]; by DSI score group (5-15, 15-25, 25-35, 35-45), listed as antipyrine): lowest PK average values | First pass hepatic extraction (qualitative) ([2]; in vivo): low first pass hepatic metabolism

O=C[C@H](O)[C@@H](O)[C@@H](O)[C@H](O)CO [Galactose]
Average galactose elimination capacity [5]: decreased average galactose elimination capacity | Clearance of galactose [6]: decreased | First pass hepatic extraction (qualitative) ([2]; substrate characterisation): relatively high first pass hepatic extraction

CSCC[C@H](N)C(=O)O [Methionine]
Average ^13CO2 exhalation score (methionine breath test) ([7]; human): reduced average ^13CO2 exhalation score | Average ^13CO2 exhalation score (methionine breath test) [7]: lowest PK average values | Average methionine breath test value [7]: decreased average methionine breath test values | First pass hepatic extraction (qualitative) ([2]; substrate characterisation): relatively low first pass hepatic extraction
